Patent US9469853B2, “MCPIP protection against osteoclast production” (University of Central Florida Research Foundation, Inc., priority 2005, dated 2016)

What was measured:
[1] = test system: TRAP and CTSK expression in BMCs; assay: Expression of OC markers TRAP and CTSK (immunoblot, real-time PCR); format: cell-based, human; conditions: for expression of TRAP and CTSK: substance alone, no other inducer, protein and mRNA; for MCPIP-induced expression of TRAP and CTSK: MCPIP-transfected BMCs, inhibitors 6 h (CeO2 10 μM, apocynin 100 μg/ml, TUDC 100 μM, 3′-MA 50 μM, LY294002 20 μM) or siRNA/antisense 24 h before transfection
Method: (§1) BMCs were cultured in α-MEM supplemented with 10% FBS containing 30 ng/ml M-CSF, 100 U/ml penicillin, and 100 μg/ml streptomycin in 5% CO2 at 37° C. OC precursor cells were induced after 3-day culture as Ha et al. (2010). At this point, cells were treated with 50 ng/ml MCP-1, inhibitors, or gene transfection. For inhibitor treatment, CeO2 (10 μM), apocynin (100 μg/ml), TUDC (100 μM), 3′-MA (50 μM), and LY294002 (20 μM) were added 6 h before gene transfection.
(§2) OC precursor cells were transfected with 1 μg GFP or MCPIP-GFP eukaryotic expression plasmids for gene-gain-function assay by using Fugene 6. For gene silencing, chemically synthesized siRNA duplex (100 nM) targeting MCPIP, IRE-1, or Beclin-1 was transfected into OC precursor cells using DharmaFECT (Dharmacon) for 24 h prior to transfection with MCPIP-GFP or GFP plasmid. A scrambled siRNA was used as a negative control. For knockdown expression of p47^PHOX, specific antisense (AS) (5′-[…]-3′ (SEQ ID NO: 5)) and sense (5′-[…]-3′ (SEQ ID NO: 6)) oligonucleotides were designed and synthesized by phosphorothioate modification by Integrated DNA Technologies. The oligonucleotides were transfected into OC precursor cells using Lipofectamine 2000 for 24 h before MCPIP-GFP plasmid transfection.
(§3) Cells were centrifuged after wash with PBS for twice. Cell pellet was resuspended in 1 ml Trizol reagent and the total RNA was extracted with chloroform and isopropanol, purified on Qiagen Mini-Prep column, and treated with DNase. High Capacity cDNA Reverse Transcription kit (Applied Biosystems) was used for cDNA preparation from 1 μg total RNA. qRT-PCR was done in triplicate in an ABI PRISM 7900HT Sequence Detection System with 5% cDNA product, primers (Supplementary Table S1) at 125 nM, and Fast SYBR Green Master Mix (Applied Biosystems). Relative quantitation of PCR products was done by the 2^−ΔΔCT method, CT=cycles to threshold, and ^ΔΔCT=(target gene CT)−(β-actin reference gene CT). Final data were described as fold changes against control cells.
(§4) Sodium dodecyl sulfate-polyacrylamide gel electrophoresis (SDS-PAGE) and western blotting were performed as described elsewhere. Samples (30 μg of protein) were subjected to 12% SDS-PAGE for most of target protein and 18% SDS-PAGE for LC3-II and LC3, transferred onto PVDF membranes (Millipore), and assayed for MCPIP, p47^PHOX, TRAP, CTSK, GRP78, IRE-1, Beclin-1, LC3-II, and β-actin or Fas (loading control) protein expression by chemiluminescence detection (Pierce ECL kit) according to the manufacturer's instructions. The specific protein bands were quantified by densitometric analysis with GS-690 Image Densitometer (Bio-Rad).

[2] = test system: GRP78 and IRE-1; assay: ER stress markers GRP78 and IRE-1 expression; format: cell-based, human; conditions: for expression of ER stress markers GRP78 and IRE-1: substance alone; for MCPIP-induced expression of GRP78: autophagy inhibition, MCPIP-transfected BMCs; for MCPIP-induced expression of GRP78 and IRE-1: pretreatment prior to MCPIP transfection, immunoblot
Method: as §1, §2, §3, §4

[3] = test system: Beclin-1, LC3, Atg7; assay: Autophagy markers (Beclin-1, LC3 lipidation, Atg7) expression; format: cell-based, human; conditions: MCPIP-transfected BMCs
Method: as §1, §2, §3, §4

[4] = test system: ROS production in BMCs; assay: ROS production (DHR123 oxidation); format: cell-based, human
Method: as §1
as §2, with “The oligonucleotides were transfected into OC precursor cells using Lipofectamine 2000 for 24 h before MCPIP-GFP plasmid transfection.” left out
Oxidant production in OC precursor cells was assessed by measuring the oxidation of intracellular DHR123 (Molecular Probes) as described previously (Younce et al., 2010). ROS production was expressed as folds compared with control cells expressing GFP alone.

[5] = test system: p47PHOX; assay: p47PHOX expression and membrane translocation (immunoblot); format: cell-based, human
Method: as §1
OC precursor cells were transfected with 1 μg GFP or MCPIP-GFP eukaryotic expression plasmids for gene-gain-function assay by using Fugene 6. […]
OC precursor cells were harvested, sonicated on ice in a buffer containing 100 mM KCl, 3 mM NaCl, 3.5 mM MgCl2, 10 mM HEPES, 1 mM EGTA, 10 μg/ml pepstatin, 10 μg/ml leupeptin, and 0.5 mM PMSF; lysates were centrifuged at 600 g for 10 min at 4° C. to remove nuclei and unbroken cells. […] Membranes were washed in the same buffer, quantified (Lemarie), and resuspended in Laemmli sample buffer, before western blot analysis.
(§5) Sodium dodecyl sulfate-polyacrylamide gel electrophoresis (SDS-PAGE) and western blotting were performed as described elsewhere. […] The specific protein bands were quantified by densitometric analysis with GS-690 Image Densitometer (Bio-Rad).

[6] = test system: MCPIP; assay: MCPIP expression (immunoblot, real-time PCR); format: cell-based, human
Method: as §1
(§6) OC precursor cells were transfected with 1 μg GFP or MCPIP-GFP eukaryotic expression plasmids for gene-gain-function assay by using Fugene 6. For gene silencing, chemically synthesized siRNA duplex (100 nM) targeting MCPIP, IRE-1, or Beclin-1 was transfected into OC precursor cells using DharmaFECT (Dharmacon) for 24 h prior to transfection with MCPIP-GFP or GFP plasmid. A scrambled siRNA was used as a negative control. […]
(§7) Cells were centrifuged after wash with PBS for twice. […] Relative quantitation of PCR products was done by the 2^−ΔΔCT method, CT=cycles to threshold, and ^ΔΔCT=(target gene CT)−(β-actin reference gene CT). […]
as §5

[7] = test system: αV integrin, β3 integrin, and MMP9; assay: Expression of OC functional markers αV integrin, β3 integrin, MMP9; format: cell-based, human; conditions: substance alone
Method: as §1, §6, §7, §5

[8] = test system: human bone marrow mononuclear cells (BMCs); assay: TRAP staining, TRAP-positive OC precursor cell formation; format: cell-based; conditions: substance alone, 50 ng/ml MCP-1, human BMCs
Method: as §1, §6
Three days after MCP-1 treatment or 4 days after MCPIP transfection, cells were fixed for histological staining for TRAP as described previously (Kim et al., 2006a). […] On each coverslip, totally at least 500 cells were examined and the TRAP-positive cells were counted in 3-5 fields (20× objective), and the percentage of TRAP-positive cells was calculated.

[9] = pretreatment prior to MCPIP transfection

C/C=C(/C)C(=O)O[C@H]1C(C)=C2[C@H]([C@@H]1OC(=O)CCCCCCC)[C@@](C)(OC(C)=O)C[C@H](OC(=O)CCC)[C@@]1(O)[C@H]2OC(=O)[C@@]1(C)O [thapsigargin]
expression of TRAP and CTSK [1]: induced
expression of ER stress markers GRP78 and IRE-1 [2]: induced

tunicamycin
expression of TRAP and CTSK [1]: induced
expression of ER stress markers GRP78 and IRE-1 [2]: induced

Cn1cnc(N)c2ncnc1-2 [3′-MA, 3′-methyladenine]
MCPIP-induced expression of TRAP and CTSK [1]: significantly inhibited
MCPIP-induced expression of Beclin-1 [3]: significantly inhibited
lipidation of LC-3 ([3]; immunoblot): inhibited
MCPIP-induced expression of GRP78 [2]: no effect

MCP-1: human MCP-1, a CC chemokine, purchased from Invitrogen
ROS generation ([4]; substance alone, DHR123 staining): remarkably increased
expression of p47PHOX and its translocation from the cytoplasm into the membrane ([5]; substance alone): increased
MCPIP protein and mRNA levels ([6]; substance alone, 50 ng/ml MCP-1): induced up-regulation
expression of TRAP and CTSK [1]: induced
expression of αV integrin, β3 integrin, and MMP9 [7]: did not affect
TRAP-positive OC precursor cell formation [8]: induced
expression of ER stress markers GRP78 and IRE-1 [2]: induced

O=c1cc(N2CCOCC2)oc2c(-c3ccccc3)cccc12 [LY294002]
MCPIP-induced expression of GRP78 [2]: no effect

C[C@H](CCC(=O)NCCS(=O)(=O)O)[C@H]1CC[C@H]2[C@@H]3[C@@H](O)C[C@@H]4C[C@H](O)CC[C@]4(C)[C@H]3CC[C@]12C [TUDC, tauroursodeoxycholate]
expression of MCPIP after MCPIP transfection ([6]; MCPIP-transfected BMCs): did not affect
MCPIP-induced expression of TRAP and CTSK [1]: significantly inhibited
MCPIP-induced expression of Beclin-1 [3]: inhibited significantly
MCPIP-induced expression of GRP78 and IRE-1 [2]: inhibits

COc1cc(C(C)=O)ccc1O [apocynin]
MCPIP-induced ROS production [4, 9]: suppressed
MCPIP-induced expression and membrane translocation of p47PHOX [5, 9]: inhibited
MCPIP-induced expression of TRAP and CTSK [1]: suppressed
MCPIP-induced expression of Beclin-1 [3]: inhibited significantly
MCPIP-induced expression of GRP78 and IRE-1 [2]: attenuated
